From patent US20210315969A1, “GLYCOPROTEINS HAVING LIPID MOBILIZING PROPERTIES AND THERAPEUTIC USES THEREOF” (Aston University, priority 2008, published 2021)

Experiments:
[1] = tested on: murine myotubes; experiment: Protein degradation and synthesis in myotubes subjected to high glucose; type: cell-based
Protocol: FIGS. 18A and 18B is a graphical diagram showing phenylalanine release (FIG. 18A) and protein synthesis (FIG. 18B) in C2Cl2 myotubes treated with and without ZAG for 4 h in the presence of various concentrations of glucose. Statistically significant c, P<0.001 from control; f, P<0.001 from glucose alone.
Statistically significant b, P<0.01 and c, P<0.001 from control; e, P<0.05 and f, P<0.001 from glucose alone.
Statistically significant b, P<0.01 and c, P<0.001 from control; e, P<0.05 and f, P<:0.001 from glucose alone; I, P<0.001 from glucose+SR.
This utilizes murine myotubes subjected. to high concentrations of glucose (10 or 25 mM).

[2] = tested on: adipocytes; experiment: Expression of phospho HSL / HSL in adipocytes incubated 3 h with ZAG or isoprenaline; type: cell-based, mice
[3] = tested on: epididymal adipocytes; experiment: Lipolytic assay (glycerol release) in isolated mouse adipocytes; type: cell-based, mice; details: any adipocyte group
Protocol: Cell Culture and Purification of ZAG—Single-cell suspensions of white adipocytes were prepared from minced adipose deposits by incubation at 37° C. for […] in Krebs-Ringer biocarbonate buffer containing 1.5 ingml^−1 collagenase, and 4% bovine serum albumin under an atmosphere of 95% oxygen:5% CO2 as previously described. For time-course studies adipocytes were suspended in DMEM containing 10% fetal calf serum at a concentration of 10^5 cells ml^−1 and maintained under an atmosphere of 10% CO2 in air at 37° C. Human 293 cells transfected with a plasmid containing human ZAG were seeded at a concentration of 10^5 cells ml^−1 in FreeStyle medium and maintained under an atmosphere of 5% CO2 in air at 37° C. Maximal protein levels (16 μgml^−1) were obtained after 14 days of culture. […]
Lipolytic Assay—Samples to be assayed were incubated with 10^5 to 2×10^5 adipocytes for 2 h in 1 ml Krebs-Ringer bicarbonate buffer, pH 7.2. The concentration of glycerol released was determined enzymatically by the method of Wieland (Wieland, O. Glycerol UV method. In Methods of Enzymatic Analysis (ed. Bergmeyer, H. U.) (Academic Press, London, UK, pp 1404-1409, 1974)). Control samples containing adipocytes alone were analysed to determine the spontaneous glycerol release. Activity was expressed as nmol glycerol released/10^5 adipocytes/2 h.

CCc1ccccc1OC[C@@H](O)CN[C@H]1CCCc2ccccc21 [SR59230A]
combination of ZAG and SR59230A on glucose induced protein degradation ([1]; 10 and 25 mM glucose): additive rather than antagonistic
protein degradation induced by 10 and 25 mM glucose ([1]; myotubes): attenuated
protein synthesis ([1]; with 10 mM glucose): causes an increase in the depression of protein synthesis

COc1cccc(-c2cc(=O)c3ccccc3o2)c1N [PD98059]
effect on ZAG-induced expression of HSL in ep adipocytes ([2]; PD98059 10 μM, adipocytes incubated with ZAG for 3 h): attenuated the increase in expression of HSL

CC(C)NCC(O)c1ccc(O)c(O)c1 (stereo not drawn) [isoprenaline]
extent of stimulation of lipolysis, isoprenaline versus ZAG [3]: no significant difference
expression of phospho HSL in adipocytes ([2]; 3 h, isoprenaline 10 μM or ZAG 0.46 μM): not
